Each block holds one compound with its values, some of them ahead of it.
How the values were obtained:
[1] = tested on: Wnt target genes, Axin2 and c-Myc; test: Western blot of Wnt target proteins in LS174 CRC cells; assay type: cell-based
Procedure: Western blot. Western blots were performed using the following antibodies: β-catenin (Sigma, C2206), c-Myc (Epitomics, 1472-1), Axin2 (Cell Signaling, 2151), β-Actin (Sigma, A1978), TCF4 (Epitomics, 2114-1) and pygopus2 (Santa Cruz, sc-74878), Cyclin D1 (Cell signaling, 2926).
(§1) Cyclin B1 levels were decreased, whereas p21^WAF1/CIP1 levels increased, consistent with the fact that p21^WAF1/CIP1 expression is repressed by c-Myc. β-catenin levels were not affected by resveratrol. Next, the mRNA levels of β-catenin target genes were analyzed using RT-PCR. Expression of survivin, Lgr5, CD44, and c-Myc were decreased in resveratrol-treated cells.
A panel of stilbene analogs was designed and synthesized (FIGS. 2, 3, 5A and 6A). […] However, the solubility of 4d was poor and it was not effective below 10 μM concentrations (data not shown). To improve its solubility and activity, compound 4d was modified with 2′-fluoro 4e, 3′-fluoro 4f and 4′-fluoro 4g substituents (FIG. 5D). Both compounds 4e and 4f had good activity at 10 μM, (E)-4-(2-fluorostyryl)-N,N-dimethylaniline.
(§2) Western blot and cell proliferation assay. The activity of fluorinated N,N-dialkylaminostilbenes (FIDAS or FIDAS agents) on Wnt signaling activity in cancer cells were analyzed by Western blot with antibodies against Wnt target genes, such as c-Myc, Axin2. The effects of FlDAS agents on cancer cell growth were analyzed using Cell Viability Analyzer (Beckman Coulter, Vi-Cell XR). These assays have been described previously (see Zhang et al., J. of Med. Chem. 54, 1288-1297 (2011)).

Solubility = assay type: physicochemical
LS174 CRC cells = test: CRC cell proliferation assay (Vi-Cell); assay type: cell-based
Procedure: Luciferase and cell proliferation assay. HEK293T cells were transiently transfected in a 12-well plate with 0.2 μg of the Super8xTOPFlash reporter and 0.05 μg of Renilla luciferase reporter. Culture medium was changed after 12 h. After 6 h, cells were treated with DMSO or Wnt inhibitors for 12 h, and then treated with 25 mM LiCl or Wnt conditioned medium. After 12 h, cells were harvested and luciferase activity measured by Dual-luciferase Reporter Assay System (Promega, Madison Wis.). All conditions were done in triplicate and each experiment was carried out at least two times. For cell proliferation assay, CRC cells were treated with DMSO or inhibitors for 2d and 4d. The cell numbers and viability were analyzed by Vi-Cell Cell Viability Analyzer.
as §2

HT29 xenografted tumors = test: HT29 tumor xenograft in nude mice, oral gavage; assay type: in vivo; conditions: HT29, 20 mg/kg in PEG400 by gavage
Procedure: Tumor xenograft in nude mice. LS174 or HT29 colon cancer cells (2×10^6) were injected subcutaneously into both flanks of 6-8 week C57BL/6J athymic nude mice as described in Zhang et al., Mol Cell Biol 2006, 26, 2055-2064. Compound 4r or 4dd was dissolved in corn oil or PEG400. The mice were treated with 20 mg/kg/day of 4r by ip injection or gavage (50 μl/mouse). Control mice were treated with same volume of corn oil or PEG400. The body weight and tumor growth were analyzed twice weekly for one month. Tumor size was measured using digital caliper. The tumor volume was calculated by the formula: V=½LW^2 (mm^3).
Xenografted nude mice were developed according to the protocol described above and in Zhang et al., J. of Med. Chem. 54, 1288-1297 (2011)). Briefly, HT29 cells were injected subcutaneously into the flanks of nude mice. The mice were then treated with 20 mg/kg compound 4dd dissolved in PEG400 by gavage. As described in Example 7, an IP injection of compound 4r dissolved in corn oil inhibited xenograft tumor growth. Here, it was also shown that the halogenated stilbenes of the present disclosure can also be dissolved in other solvents such as PEG400 and cyclodextran.

Tolerability in mice = assay type: in vivo
Procedure: Therefore, as shown in this example, the halogenated stilbene analogs of the present disclosure are capable of inhibiting CRC both in vitro and in vivo. In another study, it was shown that mice could tolerate at least 200 mg/kg of a halogenated stilbene analog, FlDAS 4dd.

liver cancer cells = test: Liver cancer cell proliferation; assay type: cell-based; conditions: FIG. 15
Procedure: as §2
As previously shown, several metabolites of the halogenated stilbenes of the present disclosure were synthesized (Example 2 and FIG. 3). In this study, the effects of some of these metabolites on cell proliferation were studied.

MAT2A [2] = molecular target: T1, MAT2A (Homo sapiens, UniProt P31153); test: Cell based SAM and SAH analysis in LS174 colon cancer cells (LC-MS/MS); parameters: endogenous in cells; host or cells: LS174T; conditions: 3 μM of 4dd versus 10 uM of 4r and 30 uM of resveratrol
Procedure: (§3) SAM and SAH analysis by LC-MS/MS. The LC-MS/MS system consisted of two Varian ProStar 210 LC Pumps coupled with a Varian 1200L triple quadrupole mass spectrometer. The separation was performed on a Hypercarb column (50 mm×2.1 mm, […], Thermo Scientific #35003-052130). Gradient elution started with 98% solution A (0.1% formic acid in water), followed by an increase to 38% solution B (0.1% formic acid in acetonitrile) in 8 min. The column was than flushed with 90% B for 5 min and regenerated with 98% A for another 8 min. The flow rate was 0.25 mL/min. Between the 3rd and 11th min, the eluent was switched to the ion source of the mass spectrometer. The precursor product transitions for SAM (m/z 399→250), SAH (m/z 385→250) and [d-4]-SAH (m/z 389→136) were monitored. The optimized ion source parameters were: Capillary Voltage: 32 V for both SAM and SAH, Collision energy: 9 V and 7V for SAM and SAH, respectively, Needle voltage: 5000 V and the Shield voltage: 600V. Nitrogen was used as the drying gas at a temperature of 300° C. and the interface heater was set to 50° C. The drying gas and nebulizing gas were set to 20 and 50 psi, respectively.
Cell based SAM analysis. […] 5 ul of supernatants were analyzed by LC-MS/MS using a modified method based on a previous publication (see Krijt et al., J Chromatogr B Analyt Technol Biomed Life Sci 877, 2061-6, (2009)). […]

Wnt signaling = test: TopFlash luciferase reporter assay in HEK293T cells; assay type: cell-based; conditions: HEK293T
Procedure: Luciferase and cell proliferation assay. HEK293T cells were transiently transfected in a 12-well plate with 0.2 μg of the Super8xTOPFlash reporter and 0.05 μg of Renilla luciferase reporter. Culture medium was changed after 12 h. After 6 h, cells were treated with DMSO or Wnt inhibitors for 12 h, and then treated with 25 mM LiCl or Wnt conditioned medium. After 12 h, cells were harvested and luciferase activity measured by Dual-luciferase Reporter Assay System (Promega, Madison Wis.). All conditions were done in triplicate and each experiment was carried out at least two times. For cell proliferation assay, CRC cells were treated with DMSO or inhibitors for 2d and 4d. The cell numbers and viability were analyzed by Vi-Cell Cell Viability Analyzer. To identify Wnt pathway inhibitors for CRC prevention and treatment, a number of anti-cancer agents from plants were screened using the TopFlash reporter assay. The TopFlash reporter was transfected into HEK293T cells, and the cells were treated with Wnt3A-conditioned medium in order to activate the luciferase reporter. […] To determine if resveratrol regulates β-catenin degradation, the cells were treated with 25 mM LiCl, which inhibits GSK-3 and stabilizes β-catenin. In this assay, LiCl activated the reporter more strongly than Wnt3A conditioned medium. […] Emodin is an anti-cancer agent from plants; it exists in many unpurified resveratrol products. Emodin had no effect on Wnt signaling. See Zhang et al., J. of Med. Chem. 54, 1288-1297 (2011).

β-catenin target genes = test: RT-PCR of β-catenin target genes in LS174 cells; assay type: cell-based; conditions: LS174 cells
Procedure: RT-PCR. LS174 cells were treated with DMSO or Wnt inhibitors. After 36 h, RNA was isolated using the RNeasy kit (Qiagen). RT-PCR was performed as described in Zhang et al., Mol Cell Biol 2006, 26, 2055-2064. The following primers were used: β-actin: 5′-CAACCGCGAGAAGATGAC-3′ (SEQ ID NO:01), 5′-AGGAAGGCTGGAAGAGTG-3′ (SEQ ID NO:02); surivivin: 5′-[…]-3′ (SEQ ID NO:03), 5′-[…]-3′ (SEQ ID NO:04); c-Myc: 5′-TGGGCTGTGAGGAGGTTTG-3′ (SEQ ID NO:05), 5′-TATGTGGAGCGGCTTCTCG-3′ (SEQ ID NO:06); Axin2: 5′-[…]-3′ (SEQ ID NO:07), 5′-[…]-3′ (SEQ ID NO:08); TCF4: 5′-[…]-3′ (SEQ ID NO:09), 5′-[…]-3′ (SEQ ID NO:10); pygopus2: 5′-GGCCGGTCTGCAAATGAAG-3′ (SEQ ID NO:11), 5′-TCCACCTCCAGTGCTGTAG-3′ (SEQ ID NO:12); Lgr5: 5′-[…]-3′ (SEQ ID NO:13), 5′-[…]-3′ (SEQ ID NO:14); CD44: 5′-[…]-3′ (SEQ ID NO:15), 5′-[…]-3′ (SEQ ID NO:16); Ki67: 5′-[…]-3′ (SEQ ID NO:17), 5′-[…]-3′ (SEQ ID NO:18).
as §1

MAT2A [3] = molecular target: T1, MAT2A; test: In-vitro SAM synthesis by MAT2A (LC-MS/MS); assay type: biochemical; parameters: GST (N); made in house
Procedure: as §3
SAM synthesis. […] purified MAT2A was incubated with 1 mM L-methionine and 1 mM ATP in […] reaction solution (50 mM Tris.Cl, 50 mM KCl, 10 mM MgCl2) for 5 min at 25° C. […] SAM was analyzed by LC-MS/MS. […]

- solubility (Solubility): poor
SMILES: CN(C)c1ccc(/C=C/c2ccccc2)cc1 [4d, (E)-4-styryl-N,N-dimethylaniline, reference compound]
- repression of Wnt target genes at 30 μM ([1]; 30 μM, CRC cells): strongly repressed
- Wnt inhibitory activity in Western blot, qualitative or relative to a comparator ([1]; CRC cells): more active than 4-methoxystilbene (4b)
- effectiveness on Wnt target genes below 10 μM ([1]; below 10 μM concentrations (data not shown)): not effective

SMILES: CNc1ccc(/C=C/c2c(F)cccc2Cl)cc1 [4dd, (E)-4-(2-chloro-6-fluorostyryl)-N-methylaniline]
- colon cancer cell proliferation, effectiveness versus resveratrol and 4r (LS174 CRC cells; FIG. 14): significantly more effective than resveratrol, as well as compound 4r
- effect on body weight (HT29 xenografted tumors): without any adverse effect
- growth of xenografted tumors (HT29 xenografted tumors): significantly inhibits
- tolerated dose (Tolerability in mice): at least 200 mg/kg
- body weights (Tolerability in mice; 200 mg/kg (data not shown)): reduced after one week but were recovered to normal weight after stopping 4dd treatment
- liver cancer cell proliferation, effectiveness versus resveratrol and 4r (liver cancer cells): significantly more effective than resveratrol, as well as compound 4r
- inhibition of MAT2A and reduction of SAM and SAH (MAT2A [2]): even more potent than 4r

- MAT2A activity in SAM synthesis (MAT2A [3]): inhibit MAT2A activity
SMILES: Oc1ccc(/C=C/c2cc(O)cc(O)c2)cc1 [resveratrol, trans- or (E)-3,5,4′-trihydroxystilbene, reference compound]
- LiCl-induced Wnt signaling (Wnt signaling; 25 mM LiCl): strongly inhibited
- Wnt-induced luciferase activity (Wnt signaling; Wnt3A-conditioned medium, 100 μM): significantly inhibited
- protein levels of TCF4 and pygopus2 ([1]; CRC cells): reduced
- β-catenin levels ([1]; CRC cells): not affected
- Cyclin B1 levels ([1]; LS174 CRC cells): decreased
- p21WAF1/CIP1 levels ([1]; LS174 CRC cells): increased
- protein levels of c-Myc and Cyclin D1 ([1]; LS174 CRC cells): reduced
- protein levels of Wnt/β-catenin targets at 100 μM ([1]; LS174 cells, 100 μM): reduced the protein levels
- cell proliferation marker Ki67 mRNA (β-catenin target genes): also decreased
- mRNA expression of survivin, Lgr5, CD44, and c-Myc (β-catenin target genes): decreased
- LS174 cell proliferation (LS174 CRC cells; treated for 2d and 4d): inhibited cell proliferation
